Measured values published in patent US20140221286A1, “SODIUM CHANNEL BLOCKERS REDUCE GLUCAGON SECRETION” (Gilead Sciences, Inc., priority 2011, published 2014).

Columns and labels:
human pancreatic islets = assay: Veratridine-induced glucagon secretion in human pancreatic islets; format: cell-based; conditions: veratridine 30 μM
ZDF diabetic rats = assay: ZDF diabetic rats, animal model of type 2 diabetes; format: in vivo, rat; conditions: for water consumption (surrogate marker for diabetes) / HbA1c levels versus vehicle group / fasting plasma glucose levels versus vehicle: in Purina 5008 diet; for water consumption (surrogate marker for diabetes): during diabetes development; for HbA1c levels versus vehicle group: weeks 4, 6 and 8; for fasting plasma glucose levels versus vehicle: weeks 7 and 9
Description: All sections from fluorescent staining were viewed under fluorescent microscope and the stained areas were digitally photographed at a magnification of 20×. The images taken at different magnification were normalized using the standard ruler grade (S1 Finder Graticule, 68040, Electron Microscopy Science, Hatfield, Pa.). Analyses of islet areas and entire section areas were performed using ImageJ software (NIH, MD). Three sections from each of 6 animals per treatment group were analyzed. Data are presented as mean±SEM. *, p<0.05; **, p<0.01; ***, p<0.001 by One-way ANOVA.
Male ZDF Leprfa/Crl rats were received at 5 weeks of age from Charles River Laboratories Inc., (Wilmington, Mass.) and were acclimated until study initiation at 6 weeks of age. Drugs were given to the animals in Purina 5008 for 10 weeks at doses approximately 170 mg/kg/d of ranolazine, 0.6 mg/kg/d of compound A and 30 mg/kg/d of sitagliptin as positive control. Fasting (12-14 h fast) and non-fasting blood samples were obtained by tail-nick and blood glucose was measured using a Freestyle Lite glucose meter (Abbott Laboratories Inc., Abbott Park, Ill.). HbA1c levels were monitored every other week. Twenty four hour water consumption as surrogate marker for diabetes for each rat was measured at least once per week.

[1] = tested on: peak Na+ current (INa) in rat isolated pancreatic α-cells; assay: Peak Na+ current (INa) in isolated pancreatic α-cells, perforated patch-clamp; format: cell-based
Description: Acutely isolated pancreatic islets were allowed to recover overnight at 37° C./5% CO2 in Islet Media (RMPI 1640 supplemented with 10 mM HEPES, 1 mM sodium pyruvate, 10% FBS, 100 U/mL penicillin, 100 μg/mL streptomycin, 2 mM L-glutamine). The islets were resuspended and then centrifuged for 3 minutes at 200×g. The supernatant was discarded and 20 mL of filtered DPBS-EDTA was added (DPBS without Ca and Mg, 3 mM EDTA (G Biosciences), 0.5% BSA (Sigma), 1.5 mM dextrose (Sigma). The islets were incubated for 3 minutes at 37° C./5% CO2 and then centrifuged for 3 minutes at 200×g. The pellet was resuspended in 5 mL of pre-warmed Accutase (Sigma) and transferred into a 60 mm suspension culture dish and incubated for 3 minutes at 37° C./5% CO2. The digested islets were centrifuged for 3 minutes at 200×g to remove the accutase and the pellet was resuspended in 20 mL of room temperature DPBS-EDTA as defined above but with BSA increased to 4%. The digested islets were gently triturated 10 times with a flamed, glass Pasteur pipette and the suspension was then applied to a […] cell strainer. The resulting single cell suspension was centrifuged for 3 minutes at 200×g and the cells were resuspended in 2 mL of pre-warmed Islet Media. The number of live cells was counted and diluted to 1×10^5 with Islet Media. […]
Membrane potential and ion channel currents were recorded 24-72 hours after dispersion using the perforated patch configuration. […] Series resistance (Rs) was monitored using a voltage step from −70 mV to 0 mV (5 ms, 0.5 Hz) and was allowed to stabilize prior to beginning the experiment (Rs<30 MOhm).
The identity of the α-cell was confirmed using cell size (membrane capacitance <6 pF) and the presence of electrical activity in low (3 mM) extracellular glucose, which are hallmarks of dispersed α-cells. […] All recordings were made using pClamp 10.2 and were analyzed using Microsoft Excel 2003, Graphpad Prism7 or OriginPro7.
Recordings of ionic currents were made at 32° C. […] INa was measured using a voltage step to 0 mV (20 ms, 0.2 Hz) from a holding potential of either −70 mV or −90 mV. […]

rat pancreatic islets = assay: Glucagon secretion in rat pancreatic islets under low glucose (3 mM), ELISA; format: cell-based; conditions: 3 mM glucose

SMILES	reduction of veratridine-induced glucagon secretion (human pancreatic islets; at 30 μM)	insulin staining per islet (ZDF diabetic rats; 10 weeks treatment)	insulin/glucagon ratio (ZDF diabetic rats; 10 weeks treatment)	islet area/pancreas area (ZDF diabetic rats; 10 weeks treatment)	staining of glucagon per islet versus vehicle (ZDF diabetic rats; 10 weeks treatment)	water consumption (surrogate marker for diabetes) (ZDF diabetic rats)	HbA1c levels versus vehicle group (ZDF diabetic rats)	fasting plasma glucose levels versus vehicle (ZDF diabetic rats)	block of peak INa ([1]; 10 μM, holding potential −70 mV)	block of peak INa ([1]; 10 μM, holding potential −90 mV)	maximal reduction of glucagon secretion as compared to the vehicle control (rat pancreatic islets; at 30 μM)	reduction of veratridine-induced glucagon secretion (human pancreatic islets; at 3 μM)	block of peak INa ([1]; 1 μM, at −90 and -70 mV)	maximal reduction of glucagon secretion as compared to the vehicle control (rat pancreatic islets; at 3 μM)
COc1ccccc1OCC(O)CN1CCN(CC(=O)Nc2c(C)cccc2C)CC1 (racemic) [Ranolazine, ±-N-(2,6-dimethylphenyl)-4-[2-hydroxy-3-(2-methoxyphenoxy)-propyl]-1-piperazineacetamide]	36±9%	91.2±1.5%	12.1±2.4	0.36±0.1%	significantly less	significantly prevented the increase	significantly lower	significantly lower	25%	10%	53±6%			
FC(F)(F)Oc1ccc(-c2ccc3nnc(C(F)(F)F)n3c2)cc1 [Compound A, 6-(4-(trifluoromethoxy)phenyl)-3-(trifluoromethyl)-[1,2,4]triazolo[4,3-α]pyridine]		90.0±2.8%		0.51±0.16%	significantly less	significantly prevented the increase	significantly lower	significantly lower				58±7%	40	53±8%
